Tests used:
[1] = test system: non-diabetic donor leukocytes; experiment: Plasma exchange: diabetic patient plasma added to non-diabetic donor cellular fraction; format: cell-based, human; settings: cellular fraction treated 1 hour before exchange; leukocytes isolated 4 hours post-exchange
Protocol: (A) Blood samples from a non-diabetic (N) and a type 2 diabetic patient were separated into plasma and cellular fractions (cellular F.) and mutually exchanged. Thus, plasma derived from the non-diabetic donor was added to the diabetic patient cellular fraction, and vice versa. Leukocytes were isolated at indicated time post-exchange, lysed and analyzed by immunoblotting. (B) Blood samples from a non-diabetic donor were treated with insulin (0.1 unit/ml) for the indicated time (lanes 1-7) or with endotoxin for 2 hours (lane 8) (C) Blood samples from a non-diabetic donor were untreated (UN) or treated for 1 hour with polymyxin (50 μg/ml) or CL-095 (30 μM). Endotoxin (Endo; 10 ng/ml) was next added to specified samples (lanes 2-4). Leukocytes were isolated 2 hours tater. […] Samples were analyzed as in (A).
For the plasma mixing experiments, the blood samples were sedimented at unit gravity for 1.5 hours. […] The leukocytes were subsequently isolated, lysed, and analyzed by immunoblotting.
Next, non-diabetic donor leukocytes and leukocytes from two type 2 diabetic patients were either untreated, or treated with either polymyxin or CLI-095 prior to the plasma/leukocytes exchange. As shown above, pS6K1, pIRS-1, and HIF-1α expression were all detected in non-diabetic donor leukocytes following exposure to diabetic patients plasma. […]

[2] = test system: TLR4; experiment: Endotoxin/TLR4 signaling block in non-diabetic donor blood challenged with endotoxin in vitro; format: cell-based, human; settings: 1 hour pretreatment, polymyxin 50 μg/ml or CLI-095; endotoxin 10 ng/ml 2 hours
Protocol: (§1) (A) Blood samples from a non-diabetic (N) and a type 2 diabetic patient were separated into plasma and cellular fractions (cellular F.) and mutually exchanged. Thus, plasma derived from the non-diabetic donor was added to the diabetic patient cellular fraction, and vice versa. Leukocytes were isolated at indicated time post-exchange, lysed and analyzed by immunoblotting. (B) Blood samples from a non-diabetic donor were treated with insulin (0.1 unit/ml) for the indicated time (lanes 1-7) or with endotoxin for 2 hours (lane 8) (C) Blood samples from a non-diabetic donor were untreated (UN) or treated for 1 hour with polymyxin (50 μg/ml) or CL-095 (30 μM). Endotoxin (Endo; 10 ng/ml) was next added to specified samples (lanes 2-4). Leukocytes were isolated 2 hours tater. (D and E) Blood samples obtained from a non-diabetic donor and two type 2 diabetic patients (identified as diabetic 1 and diabetic 2) were all separated into plasma and cellular fraction. The cellular fractions were either untreated (lane 4) or treated with polymyxin (lanes 5 and 8) or CLI-095 (lanes 6 and 9) for 1 hour. The samples shown in lanes 1-3 were not subjected to plasma exchange. (D) Plasma derived from diabetic 1 (lanes 4-6) or diabetic 2 (lanes 7-9) was added to the non-diabetic donor cellular fractions and (E) vice versa. The leukocytes were isolated at 4 hours post-exchange. Samples were analyzed as in (A).
(§2) Endotoxin (lipopolysaccharide from Escherichia coli 0111B4, Sigma, 10 ng/ml). Insulin (Humalog Mix 50/50; Lilly) was used at the indicated concentrations (0.05-1 unit/ml), Polymyxin (Invivogen, 50 μg/ml), CLI-095 (Invivogen; 3 μM), LY294002 (Cayman Chemical; 10 μM), Rapamycin (Tocris Bioscience; 100 nM), YC-1 (Sigma; 30 μM), Acriflavine (ACF; Sigma; 5 μM)
(§3) Human Subjects were enrolled in the study following the Institutional Review Board of Rutgers Robert Wood Johnson Medical School approval. Written informed consent was obtained from all participates prior to inclusion in the study. Blood was drawn into EDTA-containing tubes. To isolate leukocytes, lysis buffer (bicarbonate-buffered ammonium chloride solution, 0.826% NH4Cl, 0.1% KHCO3, 0.0037% Na4EDTA in H2O) was added at a ratio of 20:1 (lysis buffer/blood). Once the erythrocytes lysed, the samples were centrifuged for […] at 400×g. The leukocyte pellet was washed once with phosphate-buffered saline. The pellet was suspended in RIPA buffer (1% Triton X-100, 1% deoxycholic acid, 10 mM Tris-HCl, pH 7.2, 158 mM NaCl, 0.1% SDS, and 1 mM PMSF and complete protease inhibitor mixture (Roche Applied Science)). Lysates containing equal protein amounts were analyzed by immunoblotting. Where indicated, endotoxin, insulin, and/or inhibitors were added to the whole blood samples prior to leukocyte isolation.
To determine whether endotoxin is the component in diabetic patient plasma that regulates leukocyte activation, endotoxin/TLR4 signaling was blocked using two pharmacologic inhibitors, polymyxin and. CLI-095. Polymyxin is a natural polypeptide antibiotic that binds the lipid A moiety of endotoxin, and consequently interferes with endotoxin binding to TLR4. CLI-095, also known as TAK-242, is a specific TLR4 signaling inhibitor. As leukocytes express multiple Toll-like receptors (TLR) including TLR4, which binds endotoxin, TLR4 functions in the regulation of Akt/S6K1/mTOR axis is of interest.

[3] = test system: liver; settings: pretreatment, endotoxin challenge; cited from earlier work
[4] = test system: human leukocytes; experiment: Ex vivo whole blood pretreated with inhibitors, then endotoxin; leukocyte Western blotting and ATP analyses; format: cell-based; settings: for endotoxin-induced AMPKα degradation (change in AMPKα expression) / endotoxin-induced HIF-1α expression / endotoxin-induced autophagy (LC3-I/LC3-II) / endotoxin-induced decline in ATP levels: whole blood treated 2 hours with inhibitor prior to endotoxin 10 ng/ml; for autophagy in endotoxin-treated leukocytes: FIG. 7B: LY 10 μM 30 min, RAPA 100 nM 2 hours, YC-1 30 μM 30 min, ACF 5 μM 2 hours, then endotoxin 10 ng/ml 2 hours
Protocol: (A) Blood samples were treated with endotoxin (LPS; […]) for the indicated time. (B-D) Blood samples were untreated (control), treated for 2 hours with DMSO (vehicle), or the specified inhibitors prior to the addition of endotoxin (10 ng/ml). The inhibitors tested included: LY294002 (LY), Rapamycin (RAPA), YC-1, acriflavine (ACF), metformin (Met) and SRT1720 (SRT). Leukocytes were isolated at the indicated time post-endotoxin treatment and lysed. Lysates were subjected to Western blotting analyses, and where shown, ATP analyses. Details are provided in the supplement. (E) Proposed model for endotoxin-induced metabolic derangement in human leukocytes.
(§4) FIG. 7. provides the Toll-like receptor 4 signaling pathway in human leukocytes and the antagonistic effect of insulin. (A) Blood samples were treated with endotoxin (10 ng/ml) for the indicated time. (B) Blood samples were untreated (UN), or treated with DMSO (vehicle; 0.05%; 2 hours), LY294002 (LY; 10 μM; 30 min), rapamycin (RAPA; 100 nM, 2 ‘hours), YC-1 (30 μM; 30 min), or acriflavine (ACF; 5 μM; 2 hours). The samples shown in lanes 3-8 were subsequently treated with endotoxin (10 ng/ml) for 2 hours. (C) Blood samples were untreated (UN; lane 1), treated with endotoxin (10 ng/ml; lane 2) for 2 hours, or with insulin (1 unit/ml) for 2 hours (lane 3) or 1 hour (lane 4). The samples shown in lanes 5-9 were treated with endotoxin (10 ng/ml) plus insulin at the indicated concentration (1-0.05 unit/ml) for 2 hours, (D) Blood samples were treated with insulin (0.1 unit/ml) plus endotoxin (10ng/ml) for the indicated time, or with endotoxin alone (Endo, 10 ng/ml) for 2 hours. Leukocytes were isolated, lysed, and analyzed as described in FIG. 5. (E) Model describing the pattern of signaling indicators detected in leukocytes treated with endotoxin as compared to insulin.
To examine the signaling events linking endotoxin induced responses ex vivo with the altered metabolic/bioenergetic profile, the inventors examined the effect of pharmacological inhibitors implicated in the regulation of HIF-1α expression in other model systems. […] Furthermore, they indicate that distinct PI-3K effectors regulate HIF-1α stabilization and AMPKα degradation.
To examine the effect of metformin on human leukocytes bioenergetics, whole blood samples were pretreated with metformin ex vivo prior to the addition of endotoxin.
as §2, §3

[5] = diabetics treated with metformin; cited from earlier work
[6] = test system: leukocytes; experiment: Insulin treatment of whole blood from non-diabetic individuals; leukocyte immunoblotting; format: cell-based, human; settings: insulin alone 0.1 unit/ml
Protocol: as §1, §2, §3
To establish the nature of the circulating factor enriched, in plasma from diabetics, multiple candidates were considered. As leukocytes express insulin receptor and circulating insulin is high in many type 2 and treated type 1 diabetic patients, insulin was chosen as the primary candidate. However, the insulin-signaling pathway in leukocytes is poorly characterized.

[7] = test system: endotoxin-treated leukocytes; experiment: Insulin plus endotoxin in the in vitro whole blood system; leukocyte immunoblotting; format: cell-based, human
Protocol: as §4, §2, §3
Following food intake, especially if high in fat, human leukocytes might be exposed to increases in both insulin and endotoxin. Therefore, the combined effects of insulin and endotoxin on leukocytes were examined using the in vitro whole blood system. […] Insulin at a dose as low as 0.1 unit/ml also delayed onset of pAkt and pS6K1 in endotoxin-treated leukocytes (FIG. 7D).

[8] = insulin 0.1 unit/ml plus endotoxin 10 ng/ml
[9] = insulin higher than 0.1 unit/ml plus endotoxin 10 ng/ml, 2 hours

CCOC(=O)C1=CCCC[C@H]1S(=O)(=O)Nc1ccc(F)cc1Cl [CLI-095]
pS6K1, pIRS-1, and HIF-1α expression following exposure to diabetic patients plasma [1]: inhibited | HIF-1α expression upon challenge with endotoxin [2]: prevented | pIRS-1 upon challenge with endotoxin [2]: prevented | pS6K1 upon challenge with endotoxin [2]: prevented

Oc1ccc(C=Cc2cc(O)cc(O)c2)cc1 [Resveratrol, resveratrol]
HIF-1α expression in the liver [3]: prevents | Sirt1 degradation in the liver [3]: prevents | autophagy in the liver [3]: prevents

O=C(Nc1ccccc1-c1cn2c(CN3CCNCC3)csc2n1)c1cnc2ccccc2n1 [SRT1720]
endotoxin-induced AMPKα degradation (change in AMPKα expression) [4]: did not | endotoxin-induced HIF-1α expression [4]: block

OCc1ccc(-c2nn(Cc3ccccc3)c3ccccc23)o1 [YC-1, 3-(5′-hydroxymethyl-2′-furyl)-1-benzylindazole]
autophagy in endotoxin-treated leukocytes [4]: prevented | endotoxin-induced AMPKα degradation (change in AMPKα expression) [4]: did not prevent | endotoxin-induced autophagy (LC3-I/LC3-II) [4]: inhibited | endotoxin-induced decline in ATP levels [4]: inhibited

CN(C)C(=N)N=C(N)N [metformin]
AMPKα phosphorylation ([4]; metformin alone, no endotoxin): induced | AMPKα phosphorylation (Thr 172) ([4]; metformin pretreatment combined with endotoxin): induced | endotoxin-induced AMPKα degradation (change in AMPKα expression) [4]: prevents | endotoxin-induced HIF-1α expression [4]: prevents | endotoxin-induced AMPKα degradation (change in AMPKα expression) ([4]; listed as Metformin): inhibited | endotoxin-induced HIF-1α expression ([4]; listed as Metformin): inhibited | less cancer than diabetics treated with insulin [5]: 25-40%

acriflavine
autophagy in endotoxin-treated leukocytes [4]: prevented | endotoxin-induced AMPKα degradation (change in AMPKα expression) [4]: did not prevent | endotoxin-induced autophagy (LC3-I/LC3-II) [4]: inhibited | endotoxin-induced decline in ATP levels [4]: inhibited

insulin: Insulin (Humalog Mix 50/50; Lilly)
Raptor dephosphorylation [6]: failed to induce | increase in HIF-1α expression [6]: failed to induce | increase in autophagy [6]: failed to induce | pAkt [6]: triggered increases | pIRS-1 [6]: failed to induce | pS6K1 [6]: triggered increases | signaling pattern of leukocytes ([7]; endotoxin plus insulin at <0.1 unit/ml): the pattern observed in leukocytes treated with endotoxin alone | onset of pAkt [7, 8]: delayed onset | onset of pS6K1 [7, 8]: delayed onset | HIF-1α expression [7, 9]: suppressed | TLR4 expression [7, 9]: suppressed | autophagy [7, 9]: suppressed | dephosphorylation of Raptor [7, 9]: suppressed | pIRS-1 [7, 9]: suppressed

polymyxin
pS6K1, pIRS-1, and HIF-1α expression following exposure to diabetic patients plasma [1]: inhibited | HIF-1α expression upon challenge with endotoxin [2]: prevented | pIRS-1 upon challenge with endotoxin [2]: prevented | pS6K1 upon challenge with endotoxin [2]: prevented

Reference: patent publication US20140113306A1, “DIAGNOSTIC AND SCREENING METHODS FOR INFLAMMATION” (Rutgers, The State University of New Jersey, priority 2012, published 2014)
